Source: paper PMC9643456, “Matching amino acids membrane preference profile to improve activity of antimicrobial peptides” (Communications Biology, 2022)
Converted amounts (≈) assume the structure as drawn. Read-outs that look alike come from different tables or passages of the source. Ends that are not written are not given here.

What was measured:
[1] = test system: K. pneumonia strains; test: microbe, parasite or virus in culture; details: Klebsiella pneumoniae
Experimental: (§1) Twenty-six A. baumannii strains were clinically isolated and gifted to us by the Kyungpook National University School of Medicine. One A. baumannii strain (ATCC 17978) was purchased and gifted to us by Kyungpook National University School of Medicine. One A. baumannii strain and 10 K. pneumoniae strains (NCCP) were purchased from the National Culture Collection for Pathogens.
(§2) To assess antimicrobial activity, the MIC50 and MIC90 were measured using broth microdilution following CLSI guidelines. […] Each experiment was performed in triplicate. Meropenem (Sigma, Darmstadt, Germany) and colistin were used as control antibiotics. Cation-adjusted Mueller–Hinton broth (CAMHB) (Becton, Dickinson and Company, Franklin Lakes, USA) with supplied calcium (50 mg/L) and magnesium (10 mg/L) was used for the CLSI-test condition. Bacteria in midlog phase and peptides were separately diluted in CAMHB. The bacteria and peptide solutions were then mixed in 96-well polyethylene plates (SPL, Gyeonggi-do, Korea) and incubated for 18 h at 37 °C. The final concentration for bacteria was 5 × 10^5 CFU/ml. […] The MIC was defined to be the lowest concentration of peptide without visible turbidity by comparing with control antibiotics with the unaided eye. […] Each experiment was performed in triplicate. MICs in albumin and acetic acid solutions were measured using the same protocol but with 0.2% bovine serum albumin (Bovogen, Keilor, Australia), 0.01% acetic acid (Merck, New Jersey, USA), and CAMHB with both calcium and magnesium. In addition, MICs used in the antibiotic resistance acquisition test, the outer–inner membrane permeation test, and the transmembrane potential test and for FE-SEM were individually determined. The final bacterial concentrations used were as follows: for resistance acquisition, optical density (OD) 0.01; for outer–inner membrane permeability assays (LB), OD 0.1; for the transmembrane potential test, 1 × 10^8 CFU/ml (OD 0.171); […]. Inhibitory activity unidentifiable by direct observation was determined by counting the CFUs. Each experiment was performed at least twice.

[2] = test system: A. baumannii strains; test: microbe, parasite or virus in culture
Experimental: as §1, §2

[3] = test system: MDR S. aureus; test: microbe, parasite or virus in culture; details: for Minimum inhibitory concentrations, MDR S. aureus: CLSI broth microdilution, CAMHB with 50 mg/L Ca2+, 10 mg/L Mg2+, 5 × 10^5 CFU/ml, 18 h 37 °C, triplicate, strain KCCM 40510; for MIC in 0.2% albumin and 0.01% AcOH added CLSI standard condition, MDR S. aureus: CAMHB plus 0.2% bovine serum albumin and 0.01% acetic acid, values marked * in Table 2
How it was run: (§3)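 CLSI broth microdilution used CAMHB supplemented with Ca (50 mg/L) and Mg (10 mg/L); runs in triplicate against meropenem/colistin controls.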

[4] = test system: MDR A. baumannii; test: microbe, parasite or virus in culture; details: for Minimum inhibitory concentrations, MDR A. baumannii: CLSI broth microdilution, CAMHB with 50 mg/L Ca2+, 10 mg/L Mg2+, 5 × 10^5 CFU/ml, 18 h 37 °C, triplicate, strain ATCC BAA-1605; for MIC in 0.2% albumin and 0.01% AcOH added CLSI standard condition, MDR A. baumannii: CAMHB plus 0.2% bovine serum albumin and 0.01% acetic acid, values marked * in Table 2
How it was run: as §3

[5] = test system: MDR P. aeruginosa; test: microbe, parasite or virus in culture; details: for Minimum inhibitory concentrations, MDR P. aeruginosa: CLSI broth microdilution, CAMHB with 50 mg/L Ca2+, 10 mg/L Mg2+, 5 × 10^5 CFU/ml, 18 h 37 °C, no visible turbidity, triplicate, strain CCARM 2180; for MIC in 0.2% albumin and 0.01% AcOH added CLSI standard condition, MDR P. aeruginosa: CAMHB plus 0.2% bovine serum albumin and 0.01% acetic acid, values marked * in Table 2
How it was run: as §3

[6] = test system: MDR E. faecalis; test: microbe, parasite or virus in culture; details: for Minimum inhibitory concentrations, MDR E. faecalis: CLSI broth microdilution, CAMHB with 50 mg/L Ca2+, 10 mg/L Mg2+, 5 × 10^5 CFU/ml, 18 h 37 °C, triplicate, strain ATCC 51575; for MIC in 0.2% albumin and 0.01% AcOH added CLSI standard condition, MDR E. faecalis: CAMHB plus 0.2% bovine serum albumin and 0.01% acetic acid, values marked * in Table 2
How it was run: as §3

[7] = test system: human red blood cells; test: Hemolytic activity; assay type: cell-based
How it was run: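 Haemolysis was read as A540 of cleared supernatants after 18 h at 37 °C, with 0% and 100% lysis set by peptide-free PBS and 1% Triton X-100 and melittin as positive control. Human RBCs were at 4% final, peptide serially diluted 100–0.78 μM; three replicates.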

C[C@@H](O)[C@H]1C(=O)N2C(C(=O)O)=C(S[C@@H]3CN[C@H](C(=O)N(C)C)C3)[C@H](C)[C@H]12 [Meropenem]
MIC ([1]; read-out: MIC, K. pneumonia NCCP 15782): > 20 µM
MIC ([1]; read-out: MIC, K. pneumonia NCCP 15864): > 20 µM
MIC ([1]; read-out: MIC, K. pneumonia NCCP 15866): > 20 µM
MIC ([1]; read-out: MIC, K. pneumonia NCCP 16052): > 20 µM
MIC ([1]; read-out: MIC, K. pneumonia NCCP 16124): > 20 µM
MIC ([1]; read-out: MIC, K. pneumonia NCCP 16125): > 20 µM
MIC ([1]; read-out: MIC, K. pneumonia NCCP 16128): 20 µM (≈ 7.67 µg/mL)
MIC ([1]; read-out: MIC, K. pneumonia NCCP 16208): > 20 µM
MIC ([1]; read-out: MIC, K. pneumonia NCCP 16212): > 20 µM
MIC ([1]; read-out: MIC, K. pneumonia NCCP 16213): > 20 µM
MIC50 ([2]; Acinetobacter baumannii): ≥ 20 µM
MIC90 ([2]; Acinetobacter baumannii): ≥ 20 µM
MIC ([2]; Acinetobacter baumannii, ATCC17978, read-out: MIC, A. baumannii ATCC 17978): < 0.31 µM
MIC ([2]; Acinetobacter baumannii, KCCM40203, read-out: MIC, A. baumannii KCCM 40203): 5 µM (≈ 1.92 µg/mL)
MIC ([2]; Acinetobacter baumannii, read-out: MIC, A. baumannii ATCC BBA 1605): > 20 µM
MIC ([2]; Acinetobacter baumannii, read-out: MIC, A. baumannii Isolated strain 1): > 20 µM
MIC ([2]; Acinetobacter baumannii, read-out: MIC, A. baumannii Isolated strain 3): > 20 µM
MIC ([2]; Acinetobacter baumannii, read-out: MIC, A. baumannii Isolated strain 6): > 20 µM
MIC ([2]; Acinetobacter baumannii, read-out: MIC, A. baumannii Isolated strain 10): > 20 µM
MIC ([2]; Acinetobacter baumannii, read-out: MIC, A. baumannii Isolated strain 14): > 20 µM
MIC ([2]; Acinetobacter baumannii, read-out: MIC, A. baumannii Isolated strain 15): < 0.31 µM
MIC ([2]; Acinetobacter baumannii, read-out: MIC, A. baumannii Isolated strain 16): > 20 µM
MIC ([2]; Acinetobacter baumannii, read-out: MIC, A. baumannii Isolated strain 19): > 20 µM
MIC ([2]; Acinetobacter baumannii, read-out: MIC, A. baumannii Isolated strain 22): > 20 µM
MIC ([2]; Acinetobacter baumannii, read-out: MIC, A. baumannii Isolated strain 39): > 20 µM
MIC ([2]; Acinetobacter baumannii, read-out: MIC, A. baumannii Isolated strain 44): > 20 µM
MIC ([2]; Acinetobacter baumannii, read-out: MIC, A. baumannii Isolated strain 66): > 20 µM
MIC ([2]; Acinetobacter baumannii, read-out: MIC, A. baumannii Isolated strain 68): > 20 µM
MIC ([2]; Acinetobacter baumannii, read-out: MIC, A. baumannii Isolated strain 69): > 20 µM
MIC ([2]; Acinetobacter baumannii, read-out: MIC, A. baumannii Isolated strain 71): > 20 µM
MIC ([2]; Acinetobacter baumannii, read-out: MIC, A. baumannii Isolated strain 76): > 20 µM
MIC ([2]; Acinetobacter baumannii, read-out: MIC, A. baumannii Isolated strain 80): > 20 µM
MIC ([2]; Acinetobacter baumannii, read-out: MIC, A. baumannii Isolated strain 82): > 20 µM
MIC ([2]; Acinetobacter baumannii, read-out: MIC, A. baumannii Isolated strain 86): > 20 µM
MIC ([2]; Acinetobacter baumannii, read-out: MIC, A. baumannii Isolated strain 89): > 20 µM
MIC ([2]; Acinetobacter baumannii, read-out: MIC, A. baumannii Isolated strain 102): > 20 µM
MIC ([2]; Acinetobacter baumannii, read-out: MIC, A. baumannii Isolated strain 127): > 20 µM
MIC ([2]; Acinetobacter baumannii, read-out: MIC, A. baumannii Isolated strain 141): > 20 µM
MIC ([2]; Acinetobacter baumannii, read-out: MIC, A. baumannii Isolated strain 144): > 20 µM
MIC ([2]; Acinetobacter baumannii, read-out: MIC, A. baumannii Isolated strain 147): > 20 µM
MIC ([2]; Acinetobacter baumannii, read-out: MIC, A. baumannii Isolated strain 152): > 20 µM
MIC ([2]; Acinetobacter baumannii, read-out: MIC, A. baumannii NCCP 14654): > 20 µM
Number of A. baumannii strains at MIC (μM) 0.63 ([2]; of 30 strains): 0
Number of A. baumannii strains at MIC (μM) 1.25 ([2]; of 30 strains): 0
Number of A. baumannii strains at MIC (μM) 2.5 ([2]; of 30 strains): 0
Number of A. baumannii strains at MIC (μM) 5 ([2]; of 30 strains): 1
Number of A. baumannii strains at MIC (μM) 10 ([2]; of 30 strains): 0
Number of A. baumannii strains at MIC (μM) ≤0.31 ([2]; of 30 strains): 2
Number of A. baumannii strains at MIC (μM) ≥20 ([2]; of 30 strains): 27

NH2 wF l l w i g l r k k r CONH2 [WCopW18, WCopW analog]
Minimum inhibitory concentrations, MDR S. aureus [3]: 1.25 µM
Minimum inhibitory concentrations, MDR A. baumannii [4]: 1.25 µM
Minimum inhibitory concentrations, MDR P. aeruginosa [5]: 5 µM
Minimum inhibitory concentrations, MDR E. faecalis [6]: 2.5 µM
Hemolysis percent, 25 μM [7]: 1.89%
Hemolysis percent, 50 μM [7]: 4.52%
Hemolysis percent, 100 μM [7]: 6.74%

NH2 wM l l w i g l r k k r CONH2 [WCopW15, WCopW analog]
Minimum inhibitory concentrations, MDR S. aureus [3]: 1.25 µM
Minimum inhibitory concentrations, MDR A. baumannii [4]: 1.25 µM
Minimum inhibitory concentrations, MDR P. aeruginosa [5]: 10 µM
Minimum inhibitory concentrations, MDR E. faecalis [6]: 2.5 µM
Hemolysis percent, 25 μM [7]: 0.65%
Hemolysis percent, 50 μM [7]: 1.16%
Hemolysis percent, 100 μM [7]: 4.04%

WLLLLLRRR-NH2 [AcWL-1]
MIC in 0.2% albumin and 0.01% AcOH added CLSI standard condition, MDR S. aureus [3]: 5 µM
Minimum inhibitory concentrations, MDR S. aureus [3]: 10 µM
MIC in 0.2% albumin and 0.01% AcOH added CLSI standard condition, MDR A. baumannii [4]: 1.25 µM
Minimum inhibitory concentrations, MDR A. baumannii [4]: 2.5 µM
MIC in 0.2% albumin and 0.01% AcOH added CLSI standard condition, MDR P. aeruginosa [5]: > 20 µM
Minimum inhibitory concentrations, MDR P. aeruginosa [5]: > 20 µM
MIC in 0.2% albumin and 0.01% AcOH added CLSI standard condition, MDR E. faecalis [6]: 5 µM
Minimum inhibitory concentrations, MDR E. faecalis [6]: 10 µM
Hemolysis percent, 50 μM ([7]; red cells of human, 18 h, 50 μM): 20.52 ±1.25%
Hemolysis percent, 25 μM ([7]; red cells of human, 18 h, 25): 11.89 ±1.24%
Hemolysis percent, 100 μM ([7]; red cells of human, 18 h, 100): 36.35 ±3.00%

WLLLLWRRR-NH2 [AcWL-3]
MIC in 0.2% albumin and 0.01% AcOH added CLSI standard condition, MDR S. aureus [3]: 2.5 µM
Minimum inhibitory concentrations, MDR S. aureus [3]: 5 µM
MIC in 0.2% albumin and 0.01% AcOH added CLSI standard condition, MDR A. baumannii [4]: 0.63 µM
Minimum inhibitory concentrations, MDR A. baumannii [4]: 2.5 µM
MIC in 0.2% albumin and 0.01% AcOH added CLSI standard condition, MDR P. aeruginosa [5]: > 20 µM
Minimum inhibitory concentrations, MDR P. aeruginosa [5]: > 20 µM
MIC in 0.2% albumin and 0.01% AcOH added CLSI standard condition, MDR E. faecalis [6]: 2.5 µM
Minimum inhibitory concentrations, MDR E. faecalis [6]: 5 µM
Hemolysis percent, 25 μM ([7]; red cells of human, 18 h, 25): 16.44 ±0.89%
Hemolysis percent, 50 μM ([7]; red cells of human, 18 h, 50): 19.80 ±0.76%
Hemolysis percent, 100 μM ([7]; red cells of human, 18 h, 100): 36.71 ±3.91%
